The source of these data is ChEMBL document CHEMBL5241054, “Effective anti-aromatase therapy to battle against estrogen-mediated breast cancer: Comparative SAR/QSAR assessment on steroidal aromatase inhibitors” (Eur J Med Chem, 2020).

This test has as its target T1, Aromatase (Homo sapiens, UniProt P11511).
T1 sequence (P11511 whole entry): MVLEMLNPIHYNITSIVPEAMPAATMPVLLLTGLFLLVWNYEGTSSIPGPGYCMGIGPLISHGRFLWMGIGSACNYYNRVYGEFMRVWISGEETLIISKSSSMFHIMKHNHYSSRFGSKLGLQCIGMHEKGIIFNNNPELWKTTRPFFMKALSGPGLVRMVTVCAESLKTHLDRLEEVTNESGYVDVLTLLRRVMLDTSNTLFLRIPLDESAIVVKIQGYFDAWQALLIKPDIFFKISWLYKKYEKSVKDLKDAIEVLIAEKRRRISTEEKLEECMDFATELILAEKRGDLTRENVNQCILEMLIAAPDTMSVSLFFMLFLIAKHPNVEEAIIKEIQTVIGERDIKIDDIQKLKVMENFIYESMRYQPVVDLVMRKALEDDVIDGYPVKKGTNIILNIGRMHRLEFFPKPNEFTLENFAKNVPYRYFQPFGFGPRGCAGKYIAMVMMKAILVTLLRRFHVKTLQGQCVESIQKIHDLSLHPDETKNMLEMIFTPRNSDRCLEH
In the case of `CO[C@@H]1C[C@@H]2[C@H](CC[C@]3(C)C(=O)CC[C@@H]23)[C@@]2(C)C=CC(=O)C=C12`, the half-maximal inhibitory concentration (IC50) was 619 nM.
As for `CCO[C@@H]1C[C@@H]2[C@H](CC[C@]3(C)C(=O)CC[C@@H]23)[C@@]2(C)C=CC(=O)C=C12`, the figure is 560 nM.
The value for `C[C@]12CCC(=O)C=C1[C@@H](OCc1ccccc1)C[C@@H]1[C@@H]2CC[C@]2(C)C(=O)CC[C@@H]12` was 2500 nM.
As for `C[C@]12C=CC(=O)C=C1[C@@H](OCc1ccccc1)C[C@@H]1[C@@H]2CC[C@]2(C)C(=O)CC[C@@H]12`, the figure is 1900 nM; as for `C[C@]12C=CC(=O)C=C1[C@H](OCc1ccccc1)C[C@@H]1[C@@H]2CC[C@]2(C)C(=O)CC[C@@H]12`, 150 nM.
In turn, `CC(=O)O[C@H]1C[C@@H]2[C@H](CC[C@]3(C)C(=O)CC[C@@H]23)[C@@]2(C)C=CC(=O)C=C12` had an IC50 of 1100 nM.
As for `CCOC1=C[C@@H]2[C@H](CC[C@]3(C)C(=O)CC[C@@H]23)[C@@]2(C)CCC(=O)C=C12`, the figure is 750 nM; as for `CCCO[C@H]1C[C@@H]2[C@H](CC[C@]3(C)C(=O)CC[C@@H]23)[C@@]2(C)CCC(=O)C=C12`, 1300 nM; as for `COC1=C[C@@H]2[C@H](CC[C@]3(C)C(=O)CC[C@@H]23)[C@@]2(C)C=CC(=O)C=C12`, 800 nM.
The value for `C[C@]12C=CC(=O)C=C1[C@H](Oc1ccccc1)C[C@@H]1[C@@H]2CC[C@]2(C)C(=O)CC[C@@H]12` was 16000 nM.
As for `CCO[C@H]1C[C@@H]2[C@H](CC[C@]3(C)C(=O)CC[C@@H]23)[C@@]2(C)CCC(=O)C=C12`, inhibition was half-maximal at 1400 nM (IC50).
`CO[C@H]1C[C@@H]2[C@H](CC[C@]3(C)C(=O)CC[C@@H]23)[C@@]2(C)CCC(=O)C=C12`: the IC50 is 540 nM.
As for `CCCCO[C@H]1C[C@@H]2[C@H](CC[C@]3(C)C(=O)CC[C@@H]23)[C@@]2(C)C=CC(=O)C=C12`, the figure is 661 nM.
The value for `CCO[C@H]1C[C@@H]2[C@H](CC[C@]3(C)C(=O)CC[C@@H]23)[C@@]2(C)C=CC(=O)C=C12` was 1500 nM.
On to `CCOC1=C[C@@H]2[C@H](CC[C@]3(C)C(=O)CC[C@@H]23)[C@@]2(C)C=CC(=O)C=C12`, for which the IC50 is 951 nM. This IC50 lies about 1.6-fold lower than the previous one.
`COC1=C[C@@H]2[C@H](CC[C@]3(C)C(=O)CC[C@@H]23)[C@@]2(C)CCC(=O)C=C12` showed an IC50 of 700 nM.
`C[C@]12CCC(=O)C=C1[C@H](OCc1ccccc1)C[C@@H]1[C@@H]2CC[C@]2(C)C(=O)CC[C@@H]12` had an IC50 of 84.9 nM.
In the case of `CCCCO[C@@H]1C[C@@H]2[C@H](CC[C@]3(C)C(=O)CC[C@@H]23)[C@@]2(C)C=CC(=O)C=C12`, half-maximal inhibition (IC50) required 460 nM.
As for `CC(=O)O[C@@H]1C[C@@H]2[C@H](CC[C@]3(C)C(=O)CC[C@@H]23)[C@@]2(C)C=CC(=O)C=C12`, the figure is 5000 nM; as for `CCCCCC(=O)O[C@H]1C[C@@H]2[C@H](CC[C@]3(C)C(=O)CC[C@@H]23)[C@@]2(C)C=CC(=O)C=C12`, 210 nM; as for `C[C@]12C=CC(=O)C=C1[C@@H](Oc1ccccc1)C[C@@H]1[C@@H]2CC[C@]2(C)C(=O)CC[C@@H]12`, 530 nM.
As for `CO[C@H]1C[C@@H]2[C@H](CC[C@]3(C)C(=O)CC[C@@H]23)[C@@]2(C)C=CC(=O)C=C12`, the figure is 440 nM; as for `CCCCO[C@H]1C[C@@H]2[C@H](CC[C@]3(C)C(=O)CC[C@@H]23)[C@@]2(C)CCC(=O)C=C12`, 780 nM.
As for `CCCCCC(=O)O[C@@H]1C[C@@H]2[C@H](CC[C@]3(C)C(=O)CC[C@@H]23)[C@@]2(C)C=CC(=O)C=C12`, the figure is 1800 nM; as for `CCCCO[C@@H]1C[C@@H]2[C@H](CC[C@]3(C)C(=O)CC[C@@H]23)[C@@]2(C)CCC(=O)C=C12`, 420 nM.

The IC50 is the concentration that gives 50% inhibition. A lower IC50 goes with greater potency in that assay.
